US9278941B2, “Azole derivative and uses thereof” (Kureha Corporation, priority 2011, dated 2016)
Like-named read-outs stand apart in the source and are kept apart here.

Experiments:
[1] = tested on: Rhizopus oryzae; assay: Antifungal test for pathogens (PDA plate), R.o; format: cell-based; settings: PDA plate medium
[2] = tested on: Phaeosphaeria nodorum; assay: Antifungal test for pathogens (PDA plate), P.n; format: cell-based; settings: PDA plate medium
[3] = tested on: Glomerella cingurata; assay: Antifungal test for pathogens (PDA plate), G.c; format: cell-based; settings: PDA plate medium
[4] = tested on: wheat leaf rust; assay: Rust control effect on wheat, foliar spray treatment; format: in vivo; settings: wettable powder foliar spray 1,000 L/ha, twelve days after inoculation
[5] = tested on: Botrytis cinerea; assay: Gray mold disease control effect on cucumbers, foliar spray treatment; format: in vivo; settings: cucumber gray mold, wettable powder foliar spray 1,000 L/ha, four days after inoculation
[6] = tested on: Sclerotinia sclerotiorum; assay: Antifungal test for pathogens (PDA plate), S.s; format: cell-based; settings: PDA plate medium
[7] = tested on: Alternaria alternata; assay: Antifungal test for pathogens (PDA plate), A.m; format: cell-based; settings: PDA plate medium
[8] = tested on: Gibberella fujikuroi; assay: Antifungal test for pathogens (PDA plate), G.f; format: cell-based; settings: PDA plate medium
[9] = tested on: Rhynchosporium secalis; assay: Antifungal test for pathogens (PDA plate), R.sec; format: cell-based; settings: PDA plate medium
[10] = tested on: Fusarium graminearum; format: cell-based; settings: PDA plate medium
[11] = tested on: Wheat leaf blight (Septoria tritici); assay: Antifungal test against wheat leaf blight (PDA plate); settings: 19 days at 25° C.
Method: Wheat leaf blight (Septoria tritici) cultured beforehand in a medium plate was punched out with a 4 mm-diameter cork borer, and inoculated in the plate media containing the agent. After inoculation, they were cultured for 19 days at 25° C., and the growth of the fungus was determined by the diameter of the growth. The growth rate of the fungus in the plate media containing the agent was compared to the growth rate of the fungus in the plate medium not containing the agent, and the filamentous fungi inhibition rate was determined using the following equation. In the equation, R is the filamentous fungi inhibition rate (%), dc is the diameter of the fungal growth in the untreated plate media, and dt is the diameter of the fungal growth in the treated plate media. R=100(dc−dt)/dc

[12] = tested on: Ustilago nuda; assay: Antifungal test for pathogens (PDA plate), U.n; format: cell-based; settings: PDA plate medium
[13] = tested on: Penicillium italicum; assay: Antifungal test for pathogens (PDA plate), P.i; format: cell-based; settings: PDA plate medium
[14] = tested on: Pyricularia oryzae; format: cell-based; settings: PDA plate medium
[15] = tested on: Pseudocercoporella herpotrichoides; assay: Antifungal test for pathogens (PDA plate), P.h; format: cell-based; settings: PDA plate medium
[16] = tested on: Fusarium oxysporum; assay: Antifungal test for pathogens (PDA plate), F.c; format: cell-based; settings: PDA plate medium
[17] = tested on: Pyrenophora graminea; assay: Antifungal test for pathogens (PDA plate), P.g; format: cell-based; settings: PDA plate medium
[18] = tested on: Botrytis cinerea; assay: Antifungal test for pathogens (PDA plate), B.c; format: cell-based; settings: PDA plate medium
[19] = tested on: wheat leaf blight; assay: Leaf blotch control effect on wheat, foliar spray treatment; settings: wettable powder foliar spray 1,000 L/ha, thirty days after inoculation
Method: After blow drying the sprayed leaves, the plants were sprinkled and inoculated with wheat leaf blight. Thirty days after inoculation, the morbidity of the wheat to powdery mildew was evaluated according to the criteria shown in Table 3, and the preventative value was calculated using the following equation. When the average morbidity of the sprayed plot was higher than the average morbidity of the unsprayed plot, the preventative value was 0%. Preventative value (%)=(1−(average morbidity of the sprayed plot/average morbidity of the unsprayed plot))×100.

[20] = tested on: powdery mildew; assay: Powdery mildew control effect on wheat, foliar spray treatment; format: in vivo; settings: wettable powder foliar spray 1,000 L/ha, seven days after inoculation
[21] = tested on: Microdochium nivale; assay: Antifungal test for pathogens (PDA plate), M.n; format: cell-based; settings: PDA plate medium
[22] = tested on: Gaeumannomyces graminis; assay: Antifungal test for pathogens (PDA plate), G.g; format: cell-based; settings: PDA plate medium
[23] = tested on: Cercospora beticola; assay: Antifungal test for pathogens (PDA plate), C.b; format: cell-based; settings: PDA plate medium
[24] = tested on: Rhizoctonia solani; assay: Antifungal test for pathogens (PDA plate), R.s; format: cell-based; settings: PDA plate medium
[25] = tested on: wheat; assay: Phytotoxicity evaluation of growth inhibition of wheat seeds, seed treatment; format: in vivo; settings: fifteen days after seeding, untreated 21 cm
Method: A pot test was used to perform a phytotoxicity evaluation of growth inhibition using a seed treatment. Compound (1(−)) or Compound (1(+)) was dissolved in DMSO so the treatment amount was 2 or 20 g ai/100 kg seeds, and the solution was smeared on wheat seeds in a vial, and eight wheat seeds were seeded in a 80 cm^2 pot. These were irrigated from below in a greenhouse. Fifteen days after seeding, the length of the wheat was evaluated.

[26] = tested on: wheat brown rust; assay: Brown rust control effect on wheat, seed treatment; format: in vivo; settings: sixteen days after inoculation
Method: A pot test was performed to evaluate the brown rust controlling effect on wheat using seed treatment. Compound (1(−)) or Compound (1(+)) was dissolved in DMSO so the treatment amount was 20 g ai/100 kg seeds or 2 g ai/100 kg seeds, and the solution was smeared on wheat seeds in a vial, and eight wheat seeds were seeded in a 80 cm^2 pot. These were irrigated from below in a greenhouse. Fifteen days after seeding, the seedlings were inoculated with wheat brown rust and then kept for two days in a box. These were again irrigated from below in a greenhouse.

COC(=O)[C@]1(C)CC[C@H](Cc2ccc(Cl)cc2)[C@@]1(O)Cn1cncn1 (relative stereo) [Compound (1(−)), (1,2-cis, 1,3-cis)-3-(4-chlorobenzyl)-2-hydroxy-1-methyl-2-(1H-1,2,4-triazole-1-ylmethyl)cyclopentanecarboxylic acid methyl ester]
Antifungal Index of Each Strain R.o ([1]; Sample Conc. 1.25 mg/L): 5 (>90%)
Antifungal Index of Each Strain R.o ([1]; Sample Conc. 2.5 mg/L): 5 (>90%)
Antifungal Index of Each Strain R.o ([1]; Sample Conc. 5 mg/L): 5 (>90%)
Antifungal Index of Each Strain P.n ([2]; Sample Conc. 1.25 mg/L): 5 (>90%)
Antifungal Index of Each Strain P.n ([2]; Sample Conc. 2.5 mg/L): 5 (>90%)
Antifungal Index of Each Strain P.n ([2]; Sample Conc. 5 mg/L): 5 (>90%)
Antifungal Index of Each Strain G.c ([3]; Sample Conc. 1.25 mg/L): 5 (>90%)
Antifungal Index of Each Strain G.c ([3]; Sample Conc. 2.5 mg/L): 5 (>90%)
Antifungal Index of Each Strain G.c ([3]; Sample Conc. 5 mg/L): 5 (>90%)
Preventative Value (%) ([4]; sample conc. 0.8 mg/L): 83.5%
Preventative Value (%) ([4]; sample conc. 3.1 mg/L): 92.9%
Preventative Value (%) ([5]; sample conc. 12.5 mg/L): 64.7%
Preventative Value (%) ([5]; sample conc. 50.0 mg/L): 100%
Antifungal Index of Each Strain S.s ([6]; Sample Conc. 1.25 mg/L): 5 (>90%)
Antifungal Index of Each Strain S.s ([6]; Sample Conc. 2.5 mg/L): 5 (>90%)
Antifungal Index of Each Strain S.s ([6]; Sample Conc. 5 mg/L): 5 (>90%)
Antifungal Index of Each Strain A.m ([7]; Sample Conc. 1.25 mg/L): 3 (80%-70%)
Antifungal Index of Each Strain A.m ([7]; Sample Conc. 2.5 mg/L): 4 (90%-80%)
Antifungal Index of Each Strain A.m ([7]; Sample Conc. 5 mg/L): 5 (>90%)
Antifungal Index of Each Strain G.f ([8]; Sample Conc. 1.25 mg/L): 5 (>90%)
Antifungal Index of Each Strain G.f ([8]; Sample Conc. 2.5 mg/L): 5 (>90%)
Antifungal Index of Each Strain G.f ([8]; Sample Conc. 5 mg/L): 5 (>90%)
Antifungal Index of Each Strain R.sec ([9]; Sample Conc. 0.08 mg/L): 5 (>90%)
Antifungal Index of Each Strain R.sec ([9]; Sample Conc. 0.16 mg/L): 5 (>90%)
Antifungal Index of Each Strain R.sec ([9]; Sample Conc. 0.31 mg/L): 5 (>90%)
Antifungal Index of Each Strain R.sec ([9]; Sample Conc. 0.63 mg/L): 5 (>90%)
Antifungal Index of Each Strain F.g ([10]; Sample Conc. 1.25 mg/L): 5 (>90%)
Antifungal Index of Each Strain F.g ([10]; Sample Conc. 2.5 mg/L): 5 (>90%)
Antifungal Index of Each Strain F.g ([10]; Sample Conc. 5 mg/L): 5 (>90%)
Antifungal Index ([11]; sample conc. 0.31 mg/L): 1 (<60%)
Antifungal Index ([11]; sample conc. 0.63 mg/L): 2 (70%-60%)
Antifungal Index ([11]; sample conc. 1.25 mg/L): 4 (90%-80%)
Antifungal Index of Each Strain U.n ([12]; Sample Conc. 1.25 mg/L): 5 (>90%)
Antifungal Index of Each Strain U.n ([12]; Sample Conc. 2.5 mg/L): 5 (>90%)
Antifungal Index of Each Strain U.n ([12]; Sample Conc. 5 mg/L): 5 (>90%)
Antifungal Index of Each Strain P.i ([13]; Sample Conc. 0.08 mg/L): 1 (<60%)
Antifungal Index of Each Strain P.i ([13]; Sample Conc. 0.16 mg/L): 1 (<60%)
Antifungal Index of Each Strain P.i ([13]; Sample Conc. 0.31 mg/L): 3 (80%-70%)
Antifungal Index of Each Strain P.i ([13]; Sample Conc. 0.63 mg/L): 5 (>90%)
Antifungal Index of Each Strain P.o ([14]; Sample Conc. 1.25 mg/L): 4 (90%-80%)
Antifungal Index of Each Strain P.o ([14]; Sample Conc. 2.5 mg/L): 5 (>90%)
Antifungal Index of Each Strain P.o ([14]; Sample Conc. 5 mg/L): 5 (>90%)
Antifungal Index of Each Strain P.h ([15]; Sample Conc. 1.25 mg/L): 5 (>90%)
Antifungal Index of Each Strain P.h ([15]; Sample Conc. 2.5 mg/L): 5 (>90%)
Antifungal Index of Each Strain P.h ([15]; Sample Conc. 5 mg/L): 5 (>90%)
Antifungal Index of Each Strain F.c ([16]; Sample Conc. 1.25 mg/L): 5 (>90%)
Antifungal Index of Each Strain F.c ([16]; Sample Conc. 2.5 mg/L): 5 (>90%)
Antifungal Index of Each Strain F.c ([16]; Sample Conc. 5 mg/L): 5 (>90%)
Antifungal Index of Each Strain P.g ([17]; Sample Conc. 0.08 mg/L): 2 (70%-60%)
Antifungal Index of Each Strain P.g ([17]; Sample Conc. 0.16 mg/L): 3 (80%-70%)
Antifungal Index of Each Strain P.g ([17]; Sample Conc. 0.31 mg/L): 4 (90%-80%)
Antifungal Index of Each Strain P.g ([17]; Sample Conc. 0.63 mg/L): 5 (>90%)
Antifungal Index of Each Strain B.c ([18]; Sample Conc. 1.25 mg/L): 5 (>90%)
Antifungal Index of Each Strain B.c ([18]; Sample Conc. 2.5 mg/L): 5 (>90%)
Antifungal Index of Each Strain B.c ([18]; Sample Conc. 5 mg/L): 5 (>90%)
Preventative Value (%) ([19]; sample conc. 12.5 mg/L): 37.5%
Preventative Value (%) ([19]; sample conc. 50 mg/L): 65%
Preventative Value (%) ([20]; sample conc. 12.5 mg/L): 96%
Preventative Value (%) ([20]; sample conc. 50.0 mg/L): 98%
Antifungal Index of Each Strain M.n ([21]; Sample Conc. 1.25 mg/L): 3 (80%-70%)
Antifungal Index of Each Strain M.n ([21]; Sample Conc. 2.5 mg/L): 5 (>90%)
Antifungal Index of Each Strain M.n ([21]; Sample Conc. 5 mg/L): 5 (>90%)
Antifungal Index of Each Strain G.g ([22]; Sample Conc. 1.25 mg/L): 5 (>90%)
Antifungal Index of Each Strain G.g ([22]; Sample Conc. 2.5 mg/L): 5 (>90%)
Antifungal Index of Each Strain G.g ([22]; Sample Conc. 5 mg/L): 5 (>90%)
Antifungal Index of Each Strain C.b ([23]; Sample Conc. 0.08 mg/L): 5 (>90%)
Antifungal Index of Each Strain C.b ([23]; Sample Conc. 0.16 mg/L): 5 (>90%)
Antifungal Index of Each Strain C.b ([23]; Sample Conc. 0.31 mg/L): 5 (>90%)
Antifungal Index of Each Strain C.b ([23]; Sample Conc. 0.63 mg/L): 5 (>90%)
Antifungal Index of Each Strain R.s ([24]; Sample Conc. 1.25 mg/L): 5 (>90%)
Antifungal Index of Each Strain R.s ([24]; Sample Conc. 2.5 mg/L): 5 (>90%)
Antifungal Index of Each Strain R.s ([24]; Sample Conc. 5 mg/L): 5 (>90%)
Average Plant Length (cm) ([25]; wheat seed treatment 2 g ai/100 kg seeds): 11 cm
Average Plant Length (cm) ([25]; wheat seed treatment 20 g ai/100 kg seeds): 6 cm
Preventative Value (%) ([26]; seed treatment 2 g ai/100 kg seeds): 70%
Preventative Value (%) ([26]; seed treatment 20 g ai/100 kg seeds): 100%
